Measured values: patent US8158628B2, “Sulfonylated 1,2,3,4-tetrahydropyrrolo[1,2-a]pyrazine compounds and their use as pharmaceuticals” (Gruenenthal GmbH, priority 2009, dated 2012)

Columns and labels:
human B1R = biological target: T1, human B1R (Homo sapiens, UniProt P46663); test: FLIPR Ca2+ functional assay, B1R antagonism, human B1R in CHO K1 cells; assay type: cell-based; conditions: test substance 10 μM; hB1R CHO K1 cells; agonist Lys-Des-Arg9 bradykinin at EC80; % of maximum achievable inhibition
T1 construct: expressed in transfected cells; host or cells: CHO K1 cells (Chinese hamster ovary), stably transfected
T1 sequence (P46663 1-353): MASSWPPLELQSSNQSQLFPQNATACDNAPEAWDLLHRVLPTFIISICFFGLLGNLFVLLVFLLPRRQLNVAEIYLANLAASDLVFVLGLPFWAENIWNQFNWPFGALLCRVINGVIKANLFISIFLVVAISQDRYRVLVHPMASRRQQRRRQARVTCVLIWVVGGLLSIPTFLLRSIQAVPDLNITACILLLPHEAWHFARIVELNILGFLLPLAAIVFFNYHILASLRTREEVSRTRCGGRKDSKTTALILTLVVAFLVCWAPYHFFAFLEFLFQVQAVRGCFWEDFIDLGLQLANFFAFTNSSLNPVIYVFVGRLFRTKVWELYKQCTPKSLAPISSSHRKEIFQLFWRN
Procedure, shortened: (§1)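 Stably transfected CHO K1 cells loaded with Fluo-4; Ca2+ fluorescence read on FLIPR (ex 488/em 540 nm). Compound preincubated 10-20 min, then agonist at EC80: Lys-Des-Arg9 bradykinin (human) or Des-Arg9 bradykinin (rat). % inhibition vs maximal inhibition; IC50 from concentration series, n=2-3, N>=2.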

B1R of the rat = biological target: T2, B1R of the rat (Rattus norvegicus, UniProt P97583); test: FLIPR Ca2+ functional assay, B1R antagonism, rat B1R in CHO K1 cells; assay type: cell-based; conditions: test substance 10 μM; rB1R CHO K1 cells; agonist Des-Arg9 bradykinin at EC80; % of maximum achievable inhibition
T2 construct: expressed in transfected cells; host or cells: CHO K1 cells (Chinese hamster ovary), stably transfected
T2 sequence (P97583 1-337): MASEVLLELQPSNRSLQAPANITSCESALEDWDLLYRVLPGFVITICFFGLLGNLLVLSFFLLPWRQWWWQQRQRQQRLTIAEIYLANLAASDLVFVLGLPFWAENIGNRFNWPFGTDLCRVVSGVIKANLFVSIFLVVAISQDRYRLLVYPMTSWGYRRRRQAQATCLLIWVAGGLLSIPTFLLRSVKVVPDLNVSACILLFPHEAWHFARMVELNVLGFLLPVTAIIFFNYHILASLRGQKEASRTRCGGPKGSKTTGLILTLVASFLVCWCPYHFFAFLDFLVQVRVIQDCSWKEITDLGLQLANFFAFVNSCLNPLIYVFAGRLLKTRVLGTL
Procedure, shortened: as §1

inhibition at 10 µM (human B1R) [%]	inhibition at 10 µM (B1R of the rat) [%]	Compound
99.8	99.5	Cc1ccc(S(=O)(=O)N2CCn3cccc3C2CC(=O)NC2CCc3cc(CNC(C)(C)C)ccc3C2)cc1Cl (centres unmarked) [Example 60, N-[6-[(tert-Butylamino)-methyl]-1,2,3,4-tetrahydro-naphthalen-2-yl]-2-[2-[(3-chloro-4-methyl-phenyl)sulfonyl]-1,2,3,4-tetrahydro-pyrrolo[1,2-a]pyrazin-1-yl]-acetamide]
99.7	100	Cc1ccc(S(=O)(=O)N2CCn3cccc3C2CC(=O)NC2CCc3cc(CN4CCN(C)CC4)ccc3C2)cc1Cl (centres unmarked) [Example 61, 2-[2-[(3-Chloro-4-methyl-phenyl)sulfonyl]-1,2,3,4-tetrahydro-pyrrolo[1,2-a]pyrazin-1-yl]-N-[6-[(4-methyl-piperazin-1-yl)-methyl]-1,2,3,4-tetrahydro-naphthalen-2-yl]-acetamide]
99.2	98.4	CCC(C)NCc1ccc2c(c1)CCC(NC(=O)CC1c3cccn3CCN1S(=O)(=O)c1ccc(C)cc1)C2 (centres unmarked) [Example 62, N-[6-[(1-Methyl-propylamino)-methyl]-1,2,3,4-tetrahydro-naphthalen-2-yl]-2-[2-(p-tolylsulfonyl)-1,2,3,4-tetrahydro-pyrrolo[1,2-a]pyrazin-1-yl]-acetamide]
99.7	91.1	CCC(C)NCc1ccc2c(c1)CCC(NC(=O)CC1c3cccn3CCN1S(=O)(=O)c1ccc(C)c(Cl)c1)C2 (centres unmarked) [Example 63, 2-[2-[(3-Chloro-4-methyl-phenyl)sulfonyl]-1,2,3,4-tetrahydro-pyrrolo[1,2-a]pyrazin-1-yl]-N-[6-[(1-methyl-propylamino)-methyl]-1,2,3,4-tetrahydro-naphthalen-2-yl]-acetamide]
99.9	102	CC(C)(C)NCc1ccc2c(c1)CCC(NC(=O)CC1c3cccn3CCN1S(=O)(=O)c1cccc(C(F)(F)F)c1)C2 (centres unmarked) [Example 64, N-[6-[(tert-Butylamino)-methyl]-1,2,3,4-tetrahydro-naphthalen-2-yl]-2-[2-[[3-(trifluoromethyl)phenyl]sulfonyl]-1,2,3,4-tetrahydro-pyrrolo[1,2-a]pyrazin-1-yl]-acetamide]
99.1	98.7	CCC(C)NCc1ccc2c(c1)CCC(NC(=O)CC1c3cccn3CCN1S(=O)(=O)c1cccc(C(F)(F)F)c1)C2 (centres unmarked) [Example 65, N-[6-[(1-Methyl-propylamino)-methyl]-1,2,3,4-tetrahydro-naphthalen-2-yl]-2-[2-[[3-(trifluoromethyl)phenyl]sulfonyl]-1,2,3,4-tetrahydro-pyrrolo[1,2-a]pyrazin-1-yl]-acetamide]
99.9	100	Cc1ccc(S(=O)(=O)N2CCn3cccc3C2CC(=O)NC2CCc3cc(CN4CCOCC4)ccc3C2)cc1Cl (centres unmarked) [Example 66, 2-[2-[(3-Chloro-4-methyl-phenyl)sulfonyl]-1,2,3,4-tetrahydro-pyrrolo[1,2-a]pyrazin-1-yl]-N-[6-(morpholin-4-yl-methyl)-1,2,3,4-tetrahydro-naphthalen-2-yl]-acetamide]
99.7	101	O=C(CC1c2cccn2CCN1S(=O)(=O)c1cccc(C(F)(F)F)c1)NC1CCc2cc(CN3CCOCC3)ccc2C1 (centres unmarked) [Example 67, N-[6-(Morpholin-4-yl-methyl)-1,2,3,4-tetrahydro-naphthalen-2-yl]-2-[2-[[3-(trifluoromethyl)phenyl]sulfonyl]-1,2,3,4-tetrahydro-pyrrolo[1,2-a]pyrazin-1-yl]-acetamide]
99.7	98.9	CN1CCN(Cc2ccc3c(c2)CCC(NC(=O)CC2c4cccn4CCN2S(=O)(=O)c2cccc(C(F)(F)F)c2)C3)CC1 (centres unmarked) [Example 68, N-[6-[(4-Methyl-piperazin-1-yl)-methyl]-1,2,3,4-tetrahydro-naphthalen-2-yl]-2-[2-[[3-(trifluoromethyl)phenyl]sulfonyl]-1,2,3,4-tetrahydro-pyrrolo[1,2-a]pyrazin-1-yl]-acetamide]
62.8	90.7	O=C(CC1c2cccn2CCN1S(=O)(=O)c1cccc(C(F)(F)F)c1)NC1CCc2cc(CN3CCCc4ccccc43)ccc2C1 (centres unmarked) [Example 69, N-[6-(1,2,3,4-Tetrahydro-quinolin-1-yl-methyl)-1,2,3,4-tetrahydro-naphthalen-2-yl]-2-[2-[[3-(trifluoromethyl)phenyl]sulfonyl]-1,2,3,4-tetrahydro-pyrrolo[1,2-a]pyrazin-1-yl]-acetamide]
99.9	102	Cc1ccc(S(=O)(=O)N2CCn3cccc3C2CC(=O)NC2CCCc3cc(CNC(C)(C)C)ccc32)cc1Cl (centres unmarked) [Example 70, N-[6-[(tert-Butylamino)-methyl]-1,2,3,4-tetrahydro-naphthalen-1-yl]-2-[2-[(3-chloro-4-methyl-phenyl)sulfonyl]-1,2,3,4-tetrahydro-pyrrolo[1,2-a]pyrazin-1-yl]-acetamide]
99.9	101	Cc1ccc(S(=O)(=O)N2CCn3cccc3C2CC(=O)NC2CCCc3cc(CNC(C)(C)C)ccc32)cc1 (centres unmarked) [Example 72, N-[6-[(tert-Butylamino)-methyl]-1,2,3,4-tetrahydro-naphthalen-1-yl]-2-[2-(p-tolylsulfonyl)-1,2,3,4-tetrahydro-pyrrolo[1,2-a]pyrazin-1-yl]-acetamide]
99.8	103	Cc1ccc(S(=O)(=O)N2CCn3cccc3C2CC(=O)NC2CCc3cc(CN(C)C(C)(C)C)ccc3C2)cc1 (centres unmarked) [Example 73, N-[6-[(tert-Butyl-methyl-amino)-methyl]-1,2,3,4-tetrahydro-naphthalen-2-yl]-2-[2-(p-tolylsulfonyl)-1,2,3,4-tetrahydro-pyrrolo[1,2-a]pyrazin-1-yl]-acetamide]
99.7	91.2	Cc1ccc(S(=O)(=O)N2CCn3cccc3C2CC(=O)NC2CCCc3cc(CN(C)C(C)(C)C)ccc32)cc1 (centres unmarked) [Example 74, N-[6-[(tert-Butyl-methyl-amino)-methyl]-1,2,3,4-tetrahydro-naphthalen-1-yl]-2-[2-(p-tolylsulfonyl)-1,2,3,4-tetrahydro-pyrrolo[1,2-a]pyrazin-1-yl]-acetamide]
99.9	102	Cc1ccc(S(=O)(=O)N2CCn3cccc3C2CC(=O)NC2CCc3cc(CN(C)C(C)(C)C)ccc3C2)cc1Cl (centres unmarked) [Example 75, N-[6-[(tert-Butyl-methyl-amino)-methyl]-1,2,3,4-tetrahydro-naphthalen-2-yl]-2-[2-[(3-chloro-4-methyl-phenyl)sulfonyl]-1,2,3,4-tetrahydro-pyrrolo[1,2-a]pyrazin-1-yl]-acetamide]
99.8	101	Cc1ccc(S(=O)(=O)N2CCn3cccc3C2CC(=O)NC2CCCc3cc(CN(C)C(C)(C)C)ccc32)cc1Cl (centres unmarked) [Example 76, N-[6-[(tert-Butyl-methyl-amino)-methyl]-1,2,3,4-tetrahydro-naphthalen-1-yl]-2-[2-[(3-chloro-4-methyl-phenyl)sulfonyl]-1,2,3,4-tetrahydro-pyrrolo[1,2-a]pyrazin-1-yl]-acetamide]
99.8	86.2	Cc1ccc(S(=O)(=O)N2CCn3cccc3C2CC(=O)NC2CCCc3cc(CN4CCN(C)CC4)ccc32)cc1 (centres unmarked) [Example 78, N-[6-[(4-Methyl-piperazin-1-yl)-methyl]-1,2,3,4-tetrahydro-naphthalen-1-yl]-2-[2-(p-tolylsulfonyl)-1,2,3,4-tetrahydro-pyrrolo[1,2-a]pyrazin-1-yl]-acetamide]

Compound	inhibition at 10 µM (human B1R) [%]	inhibition at 10 µM (B1R of the rat) [%]
Cc1ccc(S(=O)(=O)N2CCn3cccc3C2CC(=O)NC2CCc3cc(CN4C5CCCC4CC5)ccc3C2)cc1Cl (centres unmarked) [Example 71, N-[6-(8-Azabicyclo[3.2.1]octan-8-yl-methyl)-1,2,3,4-tetrahydro-naphthalen-2-yl]-2-[2-[(3-chloro-4-methyl-phenyl)sulfonyl]-1,2,3,4-tetrahydro-pyrrolo[1,2-a]pyrazin-1-yl]-acetamide]	99.8	102
Cc1ccc(S(=O)(=O)N2CCn3cccc3C2CC(=O)NC2CCc3cc(CN4C5CCCC4CC5)ccc3C2)cc1 (centres unmarked) [Example 77, N-[6-(8-Azabicyclo[3.2.1]octan-8-yl-methyl)-1,2,3,4-tetrahydro-naphthalen-2-yl]-2-[2-(p-tolylsulfonyl)-1,2,3,4-tetrahydro-pyrrolo[1,2-a]pyrazin-1-yl]-acetamide]	99.2	103
